pIC50: −log10 of the molar value.

A short description of this experiment: Antiplatelet activity in rabbit platelet rich plasma assessed as inhibition of ADP-induced platelet aggregation treated for 5 mins before ADP challenge measured for 6 mins by microplate reader. In kind it is functional, cell-free. To be noted: Oryctolagus cuniculus.
In the case of `CCCN1C(=O)COc2cc(CNc3ccccc3)ccc21`, the negative-log IC50 (pIC50) (commonly the negative decadic logarithm of the IC50, by convention in mol/L) was 4.99.

In the case of `CCCCN1C(=O)COc2cc(CNc3ccccc3)ccc21`, the pIC50 was 4.82.

In the case of `CCCN1C(=O)COc2cc(CNc3ccccc3C)ccc21`, the negative-log IC50 (pIC50) was 4.73. In the case of `CCCCN1C(=O)COc2cc(CNc3ccccc3C)ccc21` it was 4.73. In the case of `CCCN1C(=O)COc2cc(CNc3cccc(C)c3)ccc21` it was 4.86; in that of `CCCCN1C(=O)COc2cc(CNc3cccc(C)c3)ccc21`, 4.90; in that of `CCCN1C(=O)COc2cc(CNc3ccc(C)cc3)ccc21`, 4.85. In the case of `CC(=O)Oc1ccccc1C(=O)O` [ASPIRIN] it was 5.22. As to `Clc1ccccc1CN1CCc2sccc2C1` [TICLOPIDINE], the pIC50 is 5.50.

Values taken from ChEMBL document CHEMBL1932957, “Synthesis of 2H-benzo[b][1,4]oxazin-3(4H)-one derivatives as platelet aggregation inhibitors” (Bioorg Med Chem Lett, 2012).
